PubChem BioAssay AID1919003 (Molecular Pharmacology Branch, DTP, NCI, 2023)

Tested on: 786-0 complex spheroids with HUVEC/MSC, growth % test/control
Assay: Anticancer human tumor 786-0 cell line growth inhibition [AhR];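 also: compound exposure lasted seven days before the read-out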
Conditions: for IC50: curve of first compound; for viability, T/C: stronger effect = lower value
Summary of the method: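 Agents were dosed in half-log steps down from roughly clinical Cmax, or from 10 microM where Cmax was unknown, alone and with AhR antagonists. Read-out: percent test/control growth of tumor spheroids containing HUVEC and MSC stromal cells.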

[1] = second compound 0.1 µM, first compound 0.0316 µM
[2] = second compound 0.1 µM, first compound 0.1 µM
[3] = second compound 0.1 µM, first compound 0.316 µM
[4] = second compound 0.1 µM, first compound 1 µM
[5] = second compound 0.1 µM, first compound 3.16 µM
[6] = second compound 0.1 µM, first compound 10 µM
[7] = second compound 0.316 µM, first compound 0.0316 µM
[8] = second compound 0.316 µM, first compound 0.1 µM
[9] = second compound 0.316 µM, first compound 0.316 µM
[10] = second compound 0.316 µM, first compound 1 µM
[11] = second compound 0.316 µM, first compound 3.16 µM
[12] = second compound 0.316 µM, first compound 10 µM
[13] = second compound 1 µM, first compound 0.0316 µM
[14] = second compound 1 µM, first compound 0.1 µM
[15] = second compound 1 µM, first compound 0.316 µM
[16] = second compound 1 µM, first compound 1 µM
[17] = second compound 1 µM, first compound 3.16 µM
[18] = second compound 1 µM, first compound 10 µM
[19] = second compound 3.16 µM, first compound 0.0316 µM
[20] = second compound 3.16 µM, first compound 0.1 µM
[21] = second compound 3.16 µM, first compound 0.316 µM
[22] = second compound 3.16 µM, first compound 1 µM
[23] = second compound 3.16 µM, first compound 3.16 µM
[24] = second compound 3.16 µM, first compound 10 µM
[25] = second compound 10 µM, first compound 0.0316 µM
[26] = second compound 10 µM, first compound 0.1 µM
[27] = second compound 10 µM, first compound 0.316 µM
[28] = second compound 10 µM, first compound 1 µM
[29] = second compound 10 µM, first compound 3.16 µM
[30] = second compound 10 µM, first compound 10 µM

SMILES: CC(C)CC(NC(=O)C(Cc1ccccc1)NC(=O)c1cnccn1)B(O)O (stereo not given) + Cc1ccccc1N=Nc1ccc(NC(=O)c2ccnn2C)c(C)c1
- IC50 (second compound 0.1 µM): 18.3 nM
- IC50 (second compound 0.316 µM): 17.9 nM
- IC50 (second compound 1 µM): 17.4 nM
- IC50 (second compound 3.16 µM): 17.6 nM
- IC50 (second compound 10 µM): 17.2 nM
- viability, T/C (second compound 0.1 µM, first compound 0.000949 µM): 96.9%
- viability, T/C (second compound 0.1 µM, first compound 0.003 µM): 103%
- viability, T/C (second compound 0.1 µM, first compound 0.00949 µM): 103%
- viability, T/C (second compound 0.1 µM, first compound 0.03 µM): 11.9%
- viability, T/C (second compound 0.1 µM, first compound 0.0949 µM): 0.85%
- viability, T/C (second compound 0.1 µM, first compound 0.3 µM): 0.51%
- viability, T/C (second compound 0.316 µM, first compound 0.000949 µM): 103%
- viability, T/C (second compound 0.316 µM, first compound 0.003 µM): 110%
- viability, T/C (second compound 0.316 µM, first compound 0.00949 µM): 98.6%
- viability, T/C (second compound 0.316 µM, first compound 0.03 µM): 10.4%
- viability, T/C (second compound 0.316 µM, first compound 0.0949 µM): 4.46%
- viability, T/C (second compound 0.316 µM, first compound 0.3 µM): 0.43%
- viability, T/C (second compound 1 µM, first compound 0.000949 µM): 106%
- viability, T/C (second compound 1 µM, first compound 0.003 µM): 107%
- viability, T/C (second compound 1 µM, first compound 0.00949 µM): 92.4%
- viability, T/C (second compound 1 µM, first compound 0.03 µM): 11.7%
- viability, T/C (second compound 1 µM, first compound 0.0949 µM): 0.98%
- viability, T/C (second compound 1 µM, first compound 0.3 µM): 2%
- viability, T/C (second compound 3.16 µM, first compound 0.000949 µM): 98.9%
- viability, T/C (second compound 3.16 µM, first compound 0.003 µM): 96.1%
- viability, T/C (second compound 3.16 µM, first compound 0.00949 µM): 104%
- viability, T/C (second compound 3.16 µM, first compound 0.03 µM): 7.1%
- viability, T/C (second compound 3.16 µM, first compound 0.0949 µM): 0.92%
- viability, T/C (second compound 3.16 µM, first compound 0.3 µM): 0.45%
- viability, T/C (second compound 10 µM, first compound 0.000949 µM): 104%
- viability, T/C (second compound 10 µM, first compound 0.003 µM): 106%
- viability, T/C (second compound 10 µM, first compound 0.00949 µM): 80.3%
- viability, T/C (second compound 10 µM, first compound 0.03 µM): 21.8%
- viability, T/C (second compound 10 µM, first compound 0.0949 µM): 1.78%
- viability, T/C (second compound 10 µM, first compound 0.3 µM): 1.25%

SMILES: COc1cc(Nc2ncc3c(n2)-c2ccc(Cl)cc2C(c2c(F)cccc2OC)=NC3)ccc1C(=O)O + Cc1ccccc1N=Nc1ccc(NC(=O)c2ccnn2C)c(C)c1
- IC50 (second compound 0.1 µM): 4130 nM
- IC50 (second compound 0.316 µM): 3610 nM
- IC50 (second compound 1 µM): 3780 nM
- IC50 (second compound 3.16 µM): 4820 nM
- IC50 (second compound 10 µM): 5410 nM
- viability, T/C [1]: 98.7%
- viability, T/C [2]: 109%
- viability, T/C [3]: 117%
- viability, T/C [4]: 84.7%
- viability, T/C [5]: 58.3%
- viability, T/C [6]: 30.1%
- viability, T/C [7]: 107%
- viability, T/C [8]: 107%
- viability, T/C [9]: 133%
- viability, T/C [10]: 91.6%
- viability, T/C [11]: 55.1%
- viability, T/C [12]: 28.7%
- viability, T/C [13]: 108%
- viability, T/C [14]: 109%
- viability, T/C [15]: 121%
- viability, T/C [16]: 89.2%
- viability, T/C [17]: 55.5%
- viability, T/C [18]: 30.2%
- viability, T/C [19]: 95.8%
- viability, T/C [20]: 98.4%
- viability, T/C [21]: 103%
- viability, T/C [22]: 82.3%
- viability, T/C [23]: 63.2%
- viability, T/C [24]: 29.2%
- viability, T/C [25]: 83.3%
- viability, T/C [26]: 85.3%
- viability, T/C [27]: 106%
- viability, T/C [28]: 91.8%
- viability, T/C [29]: 60.2%
- viability, T/C [30]: 38.2%

SMILES: Cn1ncnc1C1c2n[nH]c(=O)c3cc(F)cc(c23)NC1c1ccc(F)cc1 (stereo not given) + Cc1ccccc1N=Nc1ccc(NC(=O)c2ccnn2C)c(C)c1
- IC50 (second compound 0.1 µM): > 100 nM
- IC50 (second compound 0.316 µM): > 100 nM
- IC50 (second compound 1 µM): > 100 nM
- IC50 (second compound 3.16 µM): > 100 nM
- IC50 (second compound 10 µM): > 100 nM
- viability, T/C (second compound 0.1 µM, first compound 0.000316 µM): 104%
- viability, T/C (second compound 0.1 µM, first compound 0.001 µM): 102%
- viability, T/C (second compound 0.1 µM, first compound 0.00316 µM): 107%
- viability, T/C (second compound 0.1 µM, first compound 0.01 µM): 101%
- viability, T/C [1]: 101%
- viability, T/C [2]: 107%
- viability, T/C (second compound 0.316 µM, first compound 0.000316 µM): 103%
- viability, T/C (second compound 0.316 µM, first compound 0.001 µM): 106%
- viability, T/C (second compound 0.316 µM, first compound 0.00316 µM): 106%
- viability, T/C (second compound 0.316 µM, first compound 0.01 µM): 106%
- viability, T/C [7]: 110%
- viability, T/C [8]: 111%
- viability, T/C (second compound 1 µM, first compound 0.000316 µM): 101%
- viability, T/C (second compound 1 µM, first compound 0.001 µM): 106%
- viability, T/C (second compound 1 µM, first compound 0.00316 µM): 108%
- viability, T/C (second compound 1 µM, first compound 0.01 µM): 117%
- viability, T/C [13]: 99.7%
- viability, T/C [14]: 110%
- viability, T/C (second compound 3.16 µM, first compound 0.000316 µM): 92.3%
- viability, T/C (second compound 3.16 µM, first compound 0.001 µM): 105%
- viability, T/C (second compound 3.16 µM, first compound 0.00316 µM): 92%
- viability, T/C (second compound 3.16 µM, first compound 0.01 µM): 94%
- viability, T/C [19]: 88.9%
- viability, T/C [20]: 91.2%
- viability, T/C (second compound 10 µM, first compound 0.000316 µM): 98.6%
- viability, T/C (second compound 10 µM, first compound 0.001 µM): 112%
- viability, T/C (second compound 10 µM, first compound 0.00316 µM): 90.5%
- viability, T/C (second compound 10 µM, first compound 0.01 µM): 93.5%
- viability, T/C [25]: 95.3%
- viability, T/C [26]: 112%

SMILES: NS(=O)(=O)OCC1CC(n2ccc3c(NC4CCc5ccccc54)ncnc32)CC1O (stereo not given) + Cc1ccccc1N=Nc1ccc(NC(=O)c2ccnn2C)c(C)c1
- IC50 (second compound 0.1 µM): 563 nM
- IC50 (second compound 0.316 µM): 652 nM
- IC50 (second compound 1 µM): 499 nM
- IC50 (second compound 3.16 µM): 437 nM
- IC50 (second compound 10 µM): 374 nM
- viability, T/C [1]: 90%
- viability, T/C [2]: 78.6%
- viability, T/C [3]: 65.5%
- viability, T/C [4]: 37%
- viability, T/C [5]: 8.68%
- viability, T/C [6]: 5.47%
- viability, T/C [7]: 87.3%
- viability, T/C [8]: 69.5%
- viability, T/C [9]: 68.1%
- viability, T/C [10]: 42.2%
- viability, T/C [11]: 10.6%
- viability, T/C [12]: 6.57%
- viability, T/C [13]: 88%
- viability, T/C [14]: 68%
- viability, T/C [15]: 63.2%
- viability, T/C [16]: 37.5%
- viability, T/C [17]: 9.47%
- viability, T/C [18]: 5.05%
- viability, T/C [19]: 73.8%
- viability, T/C [20]: 65%
- viability, T/C [21]: 59.4%
- viability, T/C [22]: 29.1%
- viability, T/C [23]: 9.11%
- viability, T/C [24]: 4.17%
- viability, T/C [25]: 76.1%
- viability, T/C [26]: 69.5%
- viability, T/C [27]: 54.3%
- viability, T/C [28]: 27.4%
- viability, T/C [29]: 11.3%
- viability, T/C [30]: 6.68%

SMILES: O=C(C=Cc1cccc(S(=O)(=O)Nc2ccccc2)c1)NO + Cc1ccccc1N=Nc1ccc(NC(=O)c2ccnn2C)c(C)c1
- IC50 (second compound 0.1 µM): 6060 nM
- IC50 (second compound 0.316 µM): 6080 nM
- IC50 (second compound 1 µM): 6300 nM
- IC50 (second compound 3.16 µM): 5700 nM
- IC50 (second compound 10 µM): 4610 nM
- viability, T/C [1]: 89.2%
- viability, T/C [2]: 103%
- viability, T/C [3]: 88.4%
- viability, T/C [4]: 94.3%
- viability, T/C [5]: 87.7%
- viability, T/C [6]: 20.9%
- viability, T/C [7]: 100%
- viability, T/C [8]: 97.1%
- viability, T/C [9]: 101%
- viability, T/C [10]: 101%
- viability, T/C [11]: 86.4%
- viability, T/C [12]: 22.1%
- viability, T/C [13]: 98.2%
- viability, T/C [14]: 100%
- viability, T/C [15]: 106%
- viability, T/C [16]: 93.5%
- viability, T/C [17]: 90.7%
- viability, T/C [18]: 22.5%
- viability, T/C [19]: 85%
- viability, T/C [20]: 91.4%
- viability, T/C [21]: 85.8%
- viability, T/C [22]: 81.9%
- viability, T/C [23]: 80%
- viability, T/C [24]: 21.4%
- viability, T/C [25]: 93.5%
- viability, T/C [26]: 87.2%
- viability, T/C [27]: 85.9%
- viability, T/C [28]: 85.5%
- viability, T/C [29]: 67.3%
- viability, T/C [30]: 14.2%
